Measured values: paper PMC9739371, “Deciphering the Binding of the Nuclear Localization Sequence of Myc Protein to the Nuclear Carrier Importin α3” (International Journal of Molecular Sciences, 2022)

Experiment: Translational diffusion NMR (DOSY)
Type: physicochemical
Conditions: 500 MHz, 10 °C, 1.8 mM peptide, 100 mM sodium phosphate pH 7.0, 100% D2O, 1% dioxane as reference
Procedure: The NMR spectra were acquired at 10 °C on a Bruker Avance 500 MHz spectrometer (Bruker GmbH, Karlsruhe, Germany), equipped with a triple resonance probe and z-pulse field gradients. Spectra were processed with Bruker TopSpin 2.1 (Bruker GmbH, Karlsruhe, Germany). […] Spectra were calibrated with 3-(trimethylsilyl) propionic acid-2,2,3,3-^2H4-sodium salt (TSP), by considering pH-dependent changes of its chemical shifts; the probe temperature was calibrated with pure methanol [49].
Measurements of the translational self-diffusion coefficient, D, were performed with the pulsed-gradient spin-echo sequence in the presence of 100% D2O. […] The gradient strength was varied in sixteen linear steps between 2% to 95% of the total power of the gradient coil. Gradient strength was calibrated by using the value of D for the residual proton water signal in a sample containing 100% D2O, in a 5-mm tube [51]. The length of the gradient was 2.5 ms; the time between two pulse gradients in the pulse sequence was 250 ms; and the recovery delay between the bipolar gradients was 100 µs. […] A final concentration of 1% of dioxane, which was assumed to have a hydrodynamic radius Rh = 2.12 Å [51], was added to the solution.

SMILES: C1COCCO1 [dioxane]
- translational diffusion coefficient D: 5.3 ± 0.6 × 10^−6 cm^2 s^−1
